How the values were obtained:
Format in all cases: functional
[1] = Cytotoxicity against human leukemia cells assessed as cell growth after 48 hrs by SRB assay
[2] = Cytotoxicity against human colon cancer cells assessed as cell growth after 48 hrs by SRB assay; conditions: Cancer cell lines
[3] = Cytotoxicity against human ovarian cancer cells assessed as cell growth after 48 hrs by SRB assay; conditions: Cancer cell lines
[4] = Cytotoxicity against human breast cancer cells assessed as cell growth after 48 hrs by SRB assay; conditions: Cancer cell lines
[5] = Cytotoxicity against human prostate cancer cells assessed as cell growth after 48 hrs by SRB assay; conditions: Cancer cell lines
[6] = tested on: NSCLC; assay: Cytotoxicity against human NSCLC cells assessed as cell growth after 48 hrs by SRB assay
[7] = Cytotoxicity against human CNSC cells assessed as cell growth after 48 hrs by SRB assay
[8] = Cytotoxicity against human renal cancer cells assessed as cell growth after 48 hrs by SRB assay; conditions: Cancer cell lines
[9] = Cytotoxicity against human melanoma cells assessed as cell growth after 48 hrs by SRB assay

Row | Structure (SMILES) | GI50 [1] [µM] | GI50 [2] [µM] | GI50 [3] [µM] | GI50 [4] [µM] | GI50 [5] [µM] | GI50 [6] [µM] | GI50 [7] [µM] | GI50 [8] [µM] | GI50 [9] [µM]
1 | O=C(Cn1c(C(=O)c2ccccc2)nc2ccccc21)c1ccc(F)cc1 | 1.41 | 3.55 | 10.7 | 3.98 | 13.5 | 18.6 | 8.51 | 2.75 | 4.57
2 | COc1ccc(C(=O)Cn2c(C(=O)c3ccc(OC)cc3)nc3ccccc32)cc1 | 0.741 | 1.26 | 3.02 | 2.4 | 2.95 | 15.1 | 3.31 | 3.89 | 3.24
3 | COc1ccc(C(=O)Cn2c(C(=O)c3ccccc3)nc3ccccc32)cc1 | 0.724 | 1.51 | 3.63 | 2.24 | 3.24 | 9.33 | 3.98 | 3.24 | 2.95
4 | O=C(Cn1c(C(=O)c2ccccc2)nc2ccccc21)c1ccccc1 | 52.5 | 63.1 | 100 | 9.33 | 72.4 | 69.2 | 83.2 | 87.1 | 100
5 | N[C@@H](Cc1ccc(N(CCCl)CCCl)cc1)C(=O)O | 3.31 | 7.76 | 6.61 | 16.2 | 32.4 | 6.76 | 7.59 | 10.2 | 8.32
6 | COc1ccc(C(=O)c2nc3ccccc3n2CC(=O)c2ccc(Cl)cc2)cc1 | 0.724 | 2.51 | 5.25 | 3.47 | 3.02 | 14.5 | 3.39 | 3.72 | 2.45
7 | COc1ccc(C(=O)Cn2c(C(=O)c3ccc(Cl)cc3)nc3ccccc32)cc1 | 2.57 | 5.01 | 17.8 | 6.17 | 24 | 18.6 | 16.6 | 14.1 | 9.55
